Assay results taken from patent publication US6492419B1, “Aqueous insecticidal pour-on formulation” (Schering-Plough Animal Health Corp., priority 1997, dated 2002).

Experiments:
Format in all cases: in vivo
[1] = Tissue residues after aqueous pour-on, sheep; conditions: 20 mg/kg pour-on, LOQ = 0.02 mg/kg
Description: (§1) Tissue residue studies were carried out following application of the aqueous pour-on to both sheep and cattle (Reference is made to page 1, lines 34 and 35 where it is mentioned that treatment with non aqueous pour-on formulations can lead to high tissue residues in animals treated with these formulations.)

[2] = system: Bovicola ovis (Schrank), sheep body louse; assay: Pen trial of diflubenzuron pour-on against sheep lice (Examples 2-4); conditions: for % Lice reduction: corrected lice counts
Source text: Order—Phthiraptera, Sub Order—Mallophaga, Family—Trichodectidae, Genus—Damalinia (Bovicola, Trichodectes), Species—Bovicola ovis (Schrank) and Common name—Sheep body louse.
The sheep used in this study were a uniform line of Merino wethers heavily infected with lice.
The method requires examination of twenty partings each 10 cm long, along two contours on the left and right sides covering the wool growing regions of the animal. At each of the 40 recorded sites all live adult lice are counted. Site counts are summed to give a total count for the animal.
Within 24 hours of shearing, treatments were applied as a single stripe along the backline of the sheep. The dose rate applied was based on 20 mL of treatment per animal which is based on all test animals being in the 30.1-55 kg weight range.
The delivery apparatus for each formulation was a commercial applicator, set to deliver 1×20 mL doses to the sheep backline. The gun was calibrated using a volumetric cylinder and checked twice before and once after treatment.
To avoid the possibility of rain complicating the post treatment situation the sheep were kept in pens for a minimum of 48 hours. Then on the morning of the 25 th day of the trial, they were placed into their paddocks. […]

[3] = Tissue residues after aqueous pour-on, cattle; conditions: 15 mg/kg pour-on, LOQ = 0.02 mg/kg
Description: as §1

[4] = system: sheep lice; assay: Field efficacy (control of sheep lice); conditions: 25 g/L; for Pre treatment mean lice count: baseline

O=C(NC(=O)c1c(F)cccc1F)Nc1ccc(Cl)cc1 [Diflubenzuron, diflubenzuron]
Level of diflubenzuron residues in tissues, Kidney ([1]; 1 day post treatment): <LOQ | Level of diflubenzuron residues in tissues, Liver ([1]; 1 day post treatment): <LOQ | Level of diflubenzuron residues in tissues, Muscle ([1]; 1 day post treatment): <LOQ | Level of diflubenzuron residues in tissues, Inguinal fat ([1]; 1 day post treatment, max): ≤ 0.02 max mg/kg | Level of diflubenzuron residues in tissues, peri-renal fat ([1]; 1 day post treatment, max): ≤ 0.03 max mg/kg | Level of diflubenzuron residues in tissues, Kidney ([1]; 3 days post treatment): <LOQ | Level of diflubenzuron residues in tissues, Liver ([1]; 3 days post treatment): <LOQ | Level of diflubenzuron residues in tissues, Muscle ([1]; 3 days post treatment): <LOQ | Level of diflubenzuron residues in tissues, Inguinal fat ([1]; 3 days post treatment, max): ≤ 0.04 max mg/kg | Level of diflubenzuron residues in tissues, peri-renal fat ([1]; 3 days post treatment, max): ≤ 0.02 max mg/kg | Level of diflubenzuron residues in tissues, Kidney ([1]; 7 days post treatment): <LOQ | Level of diflubenzuron residues in tissues, Liver ([1]; 7 days post treatment): <LOQ | Level of diflubenzuron residues in tissues, Muscle ([1]; 7 days post treatment): <LOQ | Level of diflubenzuron residues in tissues, Inguinal fat ([1]; 7 days post treatment, max): ≤ 0.03 max mg/kg | Level of diflubenzuron residues in tissues, peri-renal fat ([1]; 7 days post treatment, max): ≤ 0.02 max mg/kg | Level of diflubenzuron residues in tissues, Kidney ([1]; 14 days post treatment): <LOQ | Level of diflubenzuron residues in tissues, Liver ([1]; 14 days post treatment): <LOQ | Level of diflubenzuron residues in tissues, Muscle ([1]; 14 days post treatment): <LOQ | Level of diflubenzuron residues in tissues, peri-renal fat ([1]; 14 days post treatment): <LOQ | Level of diflubenzuron residues in tissues, Inguinal fat ([1]; 14 days post treatment, max): ≤ 0.02 max mg/kg | Level of diflubenzuron residues in tissues, Kidney ([1]; 21 days post treatment): <LOQ | Level of diflubenzuron residues in tissues, Liver ([1]; 21 days post treatment): <LOQ | Level of diflubenzuron residues in tissues, Muscle ([1]; 21 days post treatment): <LOQ | Level of diflubenzuron residues in tissues, peri-renal fat ([1]; 21 days post treatment): <LOQ | Level of diflubenzuron residues in tissues, Inguinal fat ([1]; 21 days post treatment, max): ≤ 0.05 max mg/kg | Level of diflubenzuron residues in tissues, Inguinal fat ([1]; 42 days post treatment): <LOQ | Level of diflubenzuron residues in tissues, Kidney ([1]; 42 days post treatment): <LOQ | Level of diflubenzuron residues in tissues, Liver ([1]; 42 days post treatment): <LOQ | Level of diflubenzuron residues in tissues, Muscle ([1]; 42 days post treatment): <LOQ | Level of diflubenzuron residues in tissues, peri-renal fat ([1]; 42 days post treatment): <LOQ | lice killed ([2]; 12.5 and 25.0 g/L, 20 ml dose along the backline of sheep, within 10 weeks of application): 95% | lice kills ([2]; 12.5 and 25.0 g/L, 20 ml dose along the backline of sheep, within 20 weeks): 100% | % Lice reduction ([2]; 12.5 g/L pour-on, sheep, after 2 weeks): 91.0% | % Lice reduction ([2]; 12.5 g/L pour-on, sheep, after 5 weeks): 94.9% | % Lice reduction ([2]; 12.5 g/L pour-on, sheep, after 10 weeks): 98.9% | % Lice reduction ([2]; 12.5 g/L pour-on, sheep, after 15 weeks): 100.0% | % Lice reduction ([2]; 12.5 g/L pour-on, sheep, after 20 weeks): 100.0% | Mean Lice Counts ([2]; 12.5 g/L, 20 mL backline (250 mg per sheep), 5 Merino wethers, week 0 (baseline)): 161.8 | Mean Lice Counts ([2]; 12.5 g/L, 20 mL backline, sheep, 2 weeks after treatment): 6.8 | Mean Lice Counts ([2]; 12.5 g/L, 20 mL backline, sheep, 5 weeks after treatment): 1.8 | Mean Lice Counts ([2]; 12.5 g/L, 20 mL backline, sheep, 10 weeks after treatment): 0.4 | Mean Lice Counts ([2]; 12.5 g/L, 20 mL backline, sheep, 15 weeks after treatment): 0.0 | Mean Lice Counts ([2]; 12.5 g/L, 20 mL backline, sheep, 20 weeks after treatment): 0.0 | % Lice reduction ([2]; 25.0 g/L pour-on, sheep, after 2 weeks): 69.6% | % Lice reduction ([2]; 25.0 g/L pour-on, sheep, after 5 weeks): 83.4% | % Lice reduction ([2]; 25.0 g/L pour-on, sheep, after 10 weeks): 94.8% | % Lice reduction ([2]; 25.0 g/L pour-on, sheep, after 15 weeks): 96.4% | % Lice reduction ([2]; 25.0 g/L pour-on, sheep, after 20 weeks): 100.0% | Mean Lice Counts ([2]; 25.0 g/L, 20 mL backline (500 mg per sheep), 5 Merino wethers, week 0 (baseline)): 120.6 | Mean Lice Counts ([2]; 25.0 g/L, 20 mL backline, sheep, 2 weeks after treatment): 17.2 | Mean Lice Counts ([2]; 25.0 g/L, 20 mL backline, sheep, 5 weeks after treatment): 4.4 | Mean Lice Counts ([2]; 25.0 g/L, 20 mL backline, sheep, 10 weeks after treatment): 1.4 | Mean Lice Counts ([2]; 25.0 g/L, 20 mL backline, sheep, 15 weeks after treatment): 1.0 | Mean Lice Counts ([2]; 25.0 g/L, 20 mL backline, sheep, 20 weeks after treatment): 0.0 | Level of diflubenzuron residues in fat tissues, Inguinal fat ([3]; 1 day post treatment): <LOQ | Level of diflubenzuron residues in fat tissues, Inguinal fat ([3]; 3 days post treatment): <LOQ | Level of diflubenzuron residues in fat tissues, Inguinal fat ([3]; 7 days post treatment): <LOQ | Level of diflubenzuron residues in fat tissues, Peri-renal fat ([3]; 7 days post treatment): <LOQ | Level of diflubenzuron residues in fat tissues, Inguinal fat ([3]; 14 days post treatment): <LOQ | Level of diflubenzuron residues in fat tissues, Peri-renal fat ([3]; 14 days post treatment): <LOQ | concentration at 1 day ([3]; bovine, peri-renal fat, topical, 1 day post treatment, read-out: Level of diflubenzuron residues in fat tissues, Peri-renal fat): 170 ng/g | concentration at 3 days ([3]; bovine, peri-renal fat, topical, 3 days post treatment, read-out: Level of diflubenzuron residues in fat tissues, Peri-renal fat): 90 ng/g | % Lice reduction ([4]; Trial 1, Uraila, N.S.W., 1309 fine wool merinos, after 6 weeks): 98.1% | % Lice reduction ([4]; Trial 1, Uraila, N.S.W., 1309 fine wool merinos, after 12 weeks): 98.7% | % Lice reduction ([4]; Trial 1, Uraila, N.S.W., 1309 fine wool merinos, after 20 weeks): 100% | Pre treatment mean lice count ([4]; Trial 1, Uraila, N.S.W., 1309 fine wool merinos): 156 | % Lice reduction ([4]; Trial 2, Guyra, N.S.W., 2000 super fine wool, after 6 weeks): 100% | % Lice reduction ([4]; Trial 2, Guyra, N.S.W., 2000 super fine wool, after 12 weeks): 100% | % Lice reduction ([4]; Trial 2, Guyra, N.S.W., 2000 super fine wool, after 20 weeks): 100% | Pre treatment mean lice count ([4]; Trial 2, Guyra, N.S.W., 2000 super fine wool): 41 | % Lice reduction ([4]; Trial 3, Crookwell, N.S.W., 680 medium fine wool merinos, after 6 weeks): 91.3% | % Lice reduction ([4]; Trial 3, Crookwell, N.S.W., 680 medium fine wool merinos, after 12 weeks): 99.6% | % Lice reduction ([4]; Trial 3, Crookwell, N.S.W., 680 medium fine wool merinos, after 20 weeks): 100% | Pre treatment mean lice count ([4]; Trial 3, Crookwell, N.S.W., 680 medium fine wool merinos): 242 | % Lice reduction ([4]; Trial 4, Lucindale, N.S.W, 1094 strong wool merinos, after 6 weeks): 99.8% | % Lice reduction ([4]; Trial 4, Lucindale, N.S.W, 1094 strong wool merinos, after 12 weeks): 100% | % Lice reduction ([4]; Trial 4, Lucindale, N.S.W, 1094 strong wool merinos, after 20 weeks): 100% | Pre treatment mean lice count ([4]; Trial 4, Lucindale, N.S.W, 1094 strong wool merinos): 35 | % Lice reduction ([4]; Trial 5, Coonalpyn, S.A., 1101 strong wool merinos, after 6 weeks): 99.6% | % Lice reduction ([4]; Trial 5, Coonalpyn, S.A., 1101 strong wool merinos, after 12 weeks): 100% | % Lice reduction ([4]; Trial 5, Coonalpyn, S.A., 1101 strong wool merinos, after 20 weeks): 100% | Pre treatment mean lice count ([4]; Trial 5, Coonalpyn, S.A., 1101 strong wool merinos): 142 | % Lice reduction ([4]; Trial 6, Lismore, Vic, 812 super fine merinos, after 6 weeks): 99.5% | % Lice reduction ([4]; Trial 6, Lismore, Vic, 812 super fine merinos, after 12 weeks): 100% | % Lice reduction ([4]; Trial 6, Lismore, Vic, 812 super fine merinos, after 20 weeks): 100% | Pre treatment mean lice count ([4]; Trial 6, Lismore, Vic, 812 super fine merinos): 51
